Entries after “also recorded” stand apart in the source; their conditions may differ. Marks after values point to notes of the source that are not given here.
Experiments:
GLP-1R = target: T1, GLP-1R (Homo sapiens, UniProt P43220); experiment: In vitro cell activity, cAMP production in HEK293 cells expressing GLP-1R; format: cell-based
T1 construct: expressed in transfected cells; host or cells: HEK293 (HEK293-GLP-1R)
Method in brief: (§1)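 Assay format: cells at 4×10^5 cells/mL, cAMP sensed by d2/cryptate FRET pair, dual-wavelength read at 665 and 620 nm. Potency expressed as EC50 from nonlinear fitting.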

GCGR = target: T2, GCGR (Homo sapiens, UniProt P47871); experiment: In vitro cell activity, cAMP production in HEK293 cells expressing GCGR; format: cell-based
T2 construct: expressed in transfected cells; host or cells: HEK293 (HEK293-GCGR)
T2 sequence (P47871 26-477, species assumed): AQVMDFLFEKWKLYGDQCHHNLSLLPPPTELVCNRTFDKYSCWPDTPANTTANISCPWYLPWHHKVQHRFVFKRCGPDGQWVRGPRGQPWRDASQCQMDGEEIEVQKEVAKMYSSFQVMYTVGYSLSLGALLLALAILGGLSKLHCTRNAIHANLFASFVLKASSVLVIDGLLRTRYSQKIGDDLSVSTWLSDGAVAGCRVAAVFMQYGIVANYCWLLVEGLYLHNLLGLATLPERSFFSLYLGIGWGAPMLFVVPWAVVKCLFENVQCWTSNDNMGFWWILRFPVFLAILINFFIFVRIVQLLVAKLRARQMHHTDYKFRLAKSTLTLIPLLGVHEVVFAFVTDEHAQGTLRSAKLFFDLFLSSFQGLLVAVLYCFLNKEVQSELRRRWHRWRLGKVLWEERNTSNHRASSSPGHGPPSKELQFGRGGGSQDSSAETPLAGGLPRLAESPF
Method in brief: as §1

GIPR = target: T3, GIPR (Homo sapiens, UniProt P48546); experiment: In vitro cell activity, cAMP production in HEK293 cells expressing GIPR; format: cell-based
T3 construct: expressed in transfected cells; host or cells: HEK293 (HEK293-GIPR)
T3 sequence (P48546 22-466): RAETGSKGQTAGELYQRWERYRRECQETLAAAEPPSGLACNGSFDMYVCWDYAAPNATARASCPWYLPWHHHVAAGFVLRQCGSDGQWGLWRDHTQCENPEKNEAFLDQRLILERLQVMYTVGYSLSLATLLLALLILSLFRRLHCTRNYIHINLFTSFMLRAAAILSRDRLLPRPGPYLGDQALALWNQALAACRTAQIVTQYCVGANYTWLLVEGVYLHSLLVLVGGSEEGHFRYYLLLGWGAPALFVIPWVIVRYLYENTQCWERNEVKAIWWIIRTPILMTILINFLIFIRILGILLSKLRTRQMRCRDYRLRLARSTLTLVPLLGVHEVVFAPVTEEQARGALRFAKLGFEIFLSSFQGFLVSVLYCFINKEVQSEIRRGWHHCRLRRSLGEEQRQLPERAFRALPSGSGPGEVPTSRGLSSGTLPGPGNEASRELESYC
Method in brief: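 cAMP accumulation is quantified by homogeneous TR-FRET (cAMP-d2 plus anti-cAMP cryptate) in GIPR-expressing HEK293 cells seeded from a 4×10^5 cells/mL suspension and treated with compound. The signal ratio is plotted against concentration and fitted to a four-parameter curve to give EC50.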

[1] = In vivo efficacy evaluation in db/db mouse model (blood glucose); design: species or system db/db mice
Method: Blood glucose was tested before each administration.

[2] = Long-term repeated administration in diet-induced obese C57BL/6 mice (DIO); format: in vivo, C57/BL6 mice
[3] = 10 nmol/kg s.c. once every 3 days, D7
[4] = 10 nmol/kg s.c. once every 3 days, D10
[5] = 10 nmol/kg s.c. once every 3 days, D13
[6] = 10 nmol/kg s.c. once every 3 days, D16
[7] = 10 nmol/kg s.c. once every 3 days, D19
[8] = 10 nmol/kg s.c. once every 3 days, D22
[9] = 10 nmol/kg s.c. once every 3 days, D25
[10] = 10 nmol/kg s.c. once every 3 days, D28
[11] = after 4 weeks of administration
[12] = after 4 weeks of administration, same dose
[13] = long-term administration 10 nmol/kg, 72 h after the last administration
[14] = long-term administration 10 nmol/kg, blood biochemical index

T1 sequence (P43220 24-463, species assumed): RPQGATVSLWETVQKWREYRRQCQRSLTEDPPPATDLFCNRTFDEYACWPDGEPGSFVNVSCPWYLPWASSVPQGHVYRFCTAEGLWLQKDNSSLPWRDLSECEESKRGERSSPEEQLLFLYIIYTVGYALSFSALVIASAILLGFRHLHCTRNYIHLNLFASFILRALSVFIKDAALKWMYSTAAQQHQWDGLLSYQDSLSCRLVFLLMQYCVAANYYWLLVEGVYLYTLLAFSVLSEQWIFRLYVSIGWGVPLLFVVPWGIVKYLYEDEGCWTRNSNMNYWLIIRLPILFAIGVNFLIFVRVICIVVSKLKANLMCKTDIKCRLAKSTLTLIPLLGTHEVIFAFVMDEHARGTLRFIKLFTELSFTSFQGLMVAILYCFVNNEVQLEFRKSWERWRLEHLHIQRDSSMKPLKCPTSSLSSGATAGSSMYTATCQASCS

For `CC[C@H](C)[C@H](NC(=O)[C@H](Cc1ccccc1)NC(=O)[C@H](C)NC(=O)[C@H](CCCNC(=N)N)NC(=O)[C@H](CCC(N)=O)NC(=O)[C@H](CCCNC(=N)N)NC(=O)[C@H](CCCCNC(=O)COCCOCCNC(=O)CC[C@H](NC(=O)CCCCCCCCCCCCCCCCCCC(=O)O)C(=O)O)NC(=O)[C@H](CCC(=O)O)NC(=O)[C@H](CC(=O)O)NC(=O)[C@H](CC(C)C)NC(=O)[C@H](CC(C)C)NC(=O)[C@@H](NC(=O)[C@H](CO)NC(=O)[C@H](Cc1ccc(O)cc1)NC(=O)[C@H](CC(=O)O)NC(=O)[C@H](CO)NC(=O)[C@@H](NC(=O)[C@](C)(Cc1ccccc1F)NC(=O)[C@@H](NC(=O)CNC(=O)[C@H](CCC(N)=O)NC(=O)C(C)(C)NC(=O)[C@@H](N)Cc1ccc(O)cc1)[C@@H](C)O)[C@@H](C)O)[C@@H](C)CC)C(=O)N[C@@H](CCC(=O)O)C(=O)N[C@@H](Cc1ccc(O)cc1)C(=O)N[C@@H](CC(C)C)C(=O)N[C@@H](CC(C)C)C(=O)N[C@@H](C)C(=O)NCC(=O)NCC(=O)N1CCC[C@H]1C(=O)N[C@@H](CO)C(=O)N[C@@H](CO)C(=O)NCC(=O)N[C@@H](C)C(=O)N1CCC[C@H]1C(=O)N1CCC[C@H]1C(=O)N1CCC[C@H]1C(=O)N[C@@H](CO)C(=O)O` [HEC-PT86], the EC50 (GLP-1R) was 0.158 nM, the EC50 (GCGR) was 0.806 nM and the EC50 (GIPR) was 0.113 nM. The “blood glucose after administration” value ([1]; db/db mice, 10 nmol/kg) was “significantly reduce blood glucose”, the “Random blood glucose (mM) D0” value ([1]; db/db mice, 10 nmol/kg s.c. once every three days, D0 (before first dose)) was 27.3 ± 3.6 mM and the “Random blood glucose (mM) D3” value ([1]; db/db mice, 10 nmol/kg s.c. once every three days, D3) was 9.2 ± 5.6 mM. For the same compound, the “Random blood glucose (mM) D4” value ([1]; db/db mice, 10 nmol/kg s.c. once every three days, D4) was 16.2 ± 6.5 mM, the “Random blood glucose (mM) D5” value ([1]; db/db mice, 10 nmol/kg s.c. once every three days, D5) was 18.8 ± 5.7 mM and the “Random blood glucose (mM) D6” value ([1]; db/db mice, 10 nmol/kg s.c. once every three days, D6) was 23.0 ± 3.7 mM. The “Random blood glucose (mM) D7” value ([1]; db/db mice, 10 nmol/kg s.c. once every three days, D7) was 21.0 ± 4.4 mM, the “Random blood glucose (mM) D10” value ([1]; db/db mice, 10 nmol/kg s.c. once every three days, D10) was 9.1 ± 2.3 mM and the “Random blood glucose (mM) D13” value ([1]; db/db mice, 10 nmol/kg s.c. once every three days, D13) was 9.6 ± 3.2 mM. The “Random blood glucose (mM) D16” value ([1]; db/db mice, 10 nmol/kg s.c. once every three days, D16) was 8.4 ± 1.7 mM, the “Random blood glucose (mM) D19” value ([1]; db/db mice, 10 nmol/kg s.c. once every three days, D19) was 12.0 ± 3.3 mM and the “Random blood glucose (mM) D22” value ([1]; db/db mice, 10 nmol/kg s.c. once every three days, D22) was 11.6 ± 3.8 mM. For the same compound, the “Random blood glucose (mM) D25” value ([1]; db/db mice, 10 nmol/kg s.c. once every three days, D25) was 13.1±3.3^a mM, the “Random blood glucose (mM) 6 h” value ([1]; db/db mice, 10 nmol/kg s.c., 6 h) was 15.4 ± 4.4 mM and the “Random blood glucose (mM) 24 h” value ([1]; db/db mice, 10 nmol/kg s.c., 24 h) was 6.5 ± 1.4 mM. The “Random blood glucose (mM) 48 h” value ([1]; db/db mice, 10 nmol/kg s.c., 48 h) was 7.9 ± 2.8 mM, the “time at which blood glucose levels reached the lowest level” value ([1]; db/db mice, 10 nmol/kg, after administration) was “about 24 hours” and the “blood glucose lowering after long-term administration compared with LY3298176” value ([1]; db/db mice, long-term repeated administration) was “better than that of the LY3298176 group; also recorded: better hypoglycemic effect than LY3298176”. For the same compound, the “blood glucose reducing effect after administration compared with LY3298176” value ([1]; db/db mice, same dose 10 nmol/kg) was “slightly better than the positive control LY3298176”, the “blood glucose level after long-term administration” value ([1]; type II diabetes model db/db mice) was “significantly improve the blood glucose level” and the “Cumulative food intake (g/pcs) D7” value [2, 3] was 8.4 g/pcs. For the same compound, the “Weight gain rate (%) D7” value [2, 3] was -17.8±5.8%, the “Cumulative food intake (g/pcs) D10” value [2, 4] was 11.6 g/pcs and the “Weight gain rate (%) D10” value [2, 4] was -23.5±6.6%. The “Cumulative food intake (g/each) D13” value [2, 5] was 14.5 g/each, the “Weight gain rate (%) D13” value [2, 5] was -26.1±7.2% and the “Cumulative food intake (g/each) D16” value [2, 6] was 19.3 g/each. The “Weight gain rate (%) D16” value [2, 6] was -27.9±7.6%, the “Cumulative food intake (g/each) D19” value [2, 7] was 24.5 g/each and the “Weight gain rate (%) D19” value [2, 7] was -29.2±8.1%. For the same compound, the “Cumulative food intake (g/each) D22” value [2, 8] was 30.4 g/each, the “Weight gain rate (%) D22” value [2, 8] was -29.3±7.2% and the “Cumulative food intake (g/each) D25” value [2, 9] was 36.6 g/each. The “Weight gain rate (%) D25” value [2, 9] was -30.6±7.0%, the “Cumulative food intake (g/each) D28” value [2, 10] was 43.4 g/each and the “Weight gain rate (%) D28” value [2, 10] was -31.2±6.4%. The “Cumulative food intake (g/each) D30” value ([2]; 10 nmol/kg s.c. once every 3 days, D30) was 47.0^a g/each, the “Weight gain rate (%) D31” value ([2]; 10 nmol/kg s.c. once every 3 days, D31) was -30.9±6.4^a % and the “Cumulative food intake (g/pcs) D0” value ([2]; 10 nmol/kg s.c., D0) was 2.5 g/pcs. For the same compound, the “Weight gain rate (%) D0” value ([2]; 10 nmol/kg s.c., D0) was 0.0±0.0%, the “Cumulative food intake (g/pcs) D1” value ([2]; 10 nmol/kg s.c., D1) was 2.9 g/pcs and the “Weight gain rate (%) D1” value ([2]; 10 nmol/kg s.c., D1) was -6.0±0.8%. The “Cumulative food intake (g/pcs) D2” value ([2]; 10 nmol/kg s.c., D2) was 3.5 g/pcs, the “Weight gain rate (%) D2” value ([2]; 10 nmol/kg s.c., D2) was -8.8±1.4% and the “Cumulative food intake (g/pcs) D3” value ([2]; 10 nmol/kg s.c., D3) was 4.5 g/pcs. The “Weight gain rate (%) D3” value ([2]; 10 nmol/kg s.c., D3) was -9.9±1.6%, the “Cumulative food intake (g/pcs) D4” value ([2]; 10 nmol/kg s.c., D4) was 5.8 g/pcs and the “Weight gain rate (%) D4” value ([2]; 10 nmol/kg s.c., D4) was -10.6±2.9%. The “liver function and blood lipids of DIO mice” value [2, 11] was “significantly improved the liver function and blood lipids”, the “weight loss and food intake inhibition effects compared with Semaglutide” value [2, 11] was “superior to the positive drug Semaglutide” and the “food intake inhibition effect compared with LY3298176” value [2, 12] was “comparable to those of the same dose of the positive drug LY3298176”. For the same compound, the “weight loss effect compared with LY3298176” value [2, 12] was “comparable to those of the same dose of the positive drug LY3298176”, the Liver index/% [2, 13] was 2.7±0.0^a % and the Liver/g [2, 13] was 0.9±0.1^a g. For the same compound, the Weight/g [2, 13] was 32.3±4.4^a g, the “ALT (U/L)” value [2, 14] was 27.8±9.4^a U/L and the “AST (U/L)” value [2, 14] was 108.6±26.3^a U/L. The “CHOL (mmol/L)” value [2, 14] was 3.5±0.7^a mmol/L and the “TRIGL (mmol/L)” value [2, 14] was 0.6±0.1^a mmol/L.
